Common to all, as to test: In vitro anti-bacterial activity (MIC90), ophthalmologic clinical bacteria isolates
Holding throughout (format): cell-based

In one assay the test system is Moraxella species. The following applies: Gram-negative.
Another assay concerns Pseudomonas aeruginosa. The following applies: Gram-negative.
The subject of the next assay is Haemophilus influenzae. The following applies: Gram-negative.
The next assay has as its system Staphylococcus aureus. The following applies: Gram-positive.
Assay [1] concerns Coagulase-negative Staphylococcus. The following applies: Gram-positive.
Another assay concerns Streptococcus pneumoniae. The following applies: Gram-positive.
The next assay relates to Corynebacterium species. The following applies: Gram-positive. From the text: As disclosed above, most of these bacteria strains are also relevant to infections of the ear and upper respiratory tract.
Another assay concerns Propionibacterium acnes. The following applies: Cutibacterium acnes, Gram-positive.
Assay [2] relates to Ofloxacin-resistant Staphylococcus aureus. The following applies: antibiotic-resistant organisms.
The test system of assay [3] is Gentamycin-resistant Staphylococcus aureus. The following applies: antibiotic-resistant organisms.
Assay [4] has as its system Gentamycin-resistant Pseudomonas aeruginosa. The following applies: antibiotic-resistant organisms.
For assay [5], the system named is Penicillin-resistant Streptococcus pneumoniae. The following applies: antibiotic-resistant organisms.

Values after ≈ are worked out from the molar mass of the structure shown.

For the molecule `CCn1cc(C(=O)O)c(=O)c2cc(F)c(N3CCNCC3)cc21` [Norfloxacin], the MIC90 in the assay on Moraxella species was 0.25 µg/mL (≈ 0.783 µM); in the assay with Pseudomonas aeruginosa it was 4 µg/mL (≈ 12.5 µM); against Haemophilus influenzae, not above 0.06 µg/mL; in the assay with Staphylococcus aureus, more than 128 µg/mL; in assay [1], 128 µg/mL (≈ 401 µM); in the assay with Streptococcus pneumoniae it was 8 µg/mL (≈ 25.1 µM). Also, the MIC90 was 16 µg/mL (≈ 50.1 µM) in the assay on Corynebacterium species; 4 µg/mL (≈ 12.5 µM) with Propionibacterium acnes; more than 128 µg/mL in assay [2]; 128 µg/mL (≈ 401 µM) in [3]; 128 µg/mL (≈ 401 µM) in [4]; 8 µg/mL (≈ 25.1 µM) in [5].

The values above are taken from patent US20090082337A1, “Compositions Comprising Quinolone and Methods for Treating or Controlling Infections” (priority 2007, published 2009).
